Measurements: PMC7193943 (European journal of medicinal chemistry, 2019)

How the values were obtained:
[1] = system: P-glycoprotein efflux transporter; conditions: Caco-2 colorectal adenocarcinoma cells; cited from earlier work
[2] = mice, 24 h after oral administration; cited from earlier work
[3] = system: H2228 cells
[4] = Solubility in aqueous media; assay type: physicochemical
[5] = system: H441 cells; experiment: Cytotoxicity assay; assay type: cell-based, human; conditions: 72 h
[6] = system: ALK-positive H2228 and ALK-negative H441 cells; experiment: Live cell tracer uptake assay; assay type: cell-based, human; conditions: after 30 min of incubation

Q: For `CCc1cc2c(cc1N1CCC(N3CCOCC3)CC1)C(C)(C)c1[nH]c3cc(C#N)ccc3c1C2=O` [Alectinib, 9-Ethyl-6,6-dimethyl-8-[4-(morpholin-4-yl)piperidin-1-yl]-11-oxo-6,11-dihydro-5H-benzo[b]carbazole-3-carbonitrile], which “transport by the P-glycoprotein efflux transporter” value [1] is on record?
A: not transported

Q: For `Cc1cc(Nc2ncc(Cl)c(Nc3ccccc3S(=O)(=O)C(C)C)n2)c(OC(C)C)cc1C1CCNCC1` [Ceritinib, 5-Chloro-N2-(2-isopropoxy-5-methyl-4-(piperidin-4-yl)phenyl)-N4-(2-(isopropylsulfonyl)phenyl)pyrimidine-2,4-diamine, reference compound], which “drug found in the brain” value [2] is on record?
A: 0.4%

Q: And the IC50 [3]?
A: 2900 nM

Q: With `C[C@@H](Oc1cc(-c2cnn(C3CCN(CCF)CC3)c2)cnc1N)c1c(Cl)ccc(F)c1Cl` [Compound 1, 3-((R)-1-(2,6-dichloro-3-fluorophenyl)ethoxy)-5-(1-(fluoroethylpiperidin-4-yl)-1H-pyrazol-4-yl)pyridin-2-amine] as the compound, how does the “solubility in saline or PBS solutions” value [4] read?
A: not soluble

Q: And the “fold loss of potency versus parent drug” value [3]?
A: less than 3 fold

Q: Which “effect on ALK-negative H441 cells (cytotoxicity)” value [5] does the source give for `CCc1cc2c(cc1N1CCC(N3CCOCC3)CC1)C(C)(C)c1c(c3ccc(C#N)cc3n1CCF)C2=O` [Compound 4, 9-Ethyl-6,6-dimethyl-8-[4-(morpholin-4-yl)piperidin-1-yl]-11-oxo-6,11-dihydro-5(2-fluoroethyl)-benzo[b]carbazole-3-carbonitrile] here?
A: no substantial effect

Q: And the “solubility in saline or PBS solutions” value [4]?
A: not soluble

Q: Which results are given for `Cc1cc(Nc2ncc(Cl)c(Nc3ccccc3S(=O)(=O)C(C)C)n2)c(OC(C)C)cc1C1CCN(CCF)CC1` [Compound 9, 5-Chloro-N2–(2-isoprpoxy-5-methyl-4-(1-fluoroethylpiperidin-4-yl)phenyl)-N4-[2-(propane-2-sulfonyl)phenyl]pyrimidine-2,4-diamine]?
A: solubility in saline or PBS solutions [4]: not soluble; fold loss of potency versus parent drug [3]: ~10 fold

Q: Which results are given for `Cc1cc(Nc2ncc(Cl)c(Nc3ccccc3S(=O)(=O)C(C)C)n2)c(OC(C)C)cc1C1CCN(CCF)CC1` [[^18F]9]?
A: solubility in water or saline ([4]; water or saline): insoluble; cell-associated radioactivity, H2228 vs H441 [6]: higher uptake in the ALK-positive H2228 cells
